Legend:
thrombin = assay: X-ray crystallography of freely mounted crystal after dripping on picoliter drops (FIG. 4); assay type: binding; conditions: active center of thrombin around Ser195; 2F0-F0 density outlined at 1σ
Source text: FIG. 4: The covalently bound inhibitor as well as individual amino acids in the environment of the active center of the thrombin around Ser195 are depicted in the form of a stick model. Oxygen atoms are depicted in red, sulfur atoms in yellow, nitrogen atoms in blue, and carbon atoms in gray. Additionally, the inhibitor is overlaid by its 2F0-F0 electron density (outlined at 1σ). The inhibitor is clearly defined concerning its electron density.
Thereby, evidence has been offered that the approach of dripping picoliter drops onto a protein crystal by use of the free mounting system works.

[1] = tested on: DPIV (dipeptidyl peptidase IV); assay: X-ray crystallography of DPIV crystal treated with inhibitor (FIG. 5); assay type: binding; conditions: active center of DPIV around Ser630; 2F0-F0 density outlined at 1σ
Source text: Oxygen atoms are depicted in red, nitrogen atoms in blue, and carbon atoms in gray. Additionally, the inhibitor as well as Ser630, which is covalently coupled to the inhibitor, is overlaid by its 2F0-F0 electron density (outlined at 1σ). The inhibitor is clearly defined concerning its electron density (FIG. 5).
From the used tripeptide having the sequence Ile-Pro-Ile, the C-terminal isoleucine is cleaved off while the dipeptide remains covalently linked with Ser630 and is not cleaved off.
The target enzyme was DPIV (dipeptidyl peptidase IV). Different fragments were solved in a cocktail together. In a cocktail (i), molecules of two different molecule species were combined, i.e. a mimetic (altered peptide backbone (vinyl derivative) of the N-terminal dipeptide of a substrate of the DPIV (having a free N-terminus) and, on the other hand, a mimetic (also a dipeptide with acetylated, blocked N-terminus, also. as. framework mimetic—vinyl derivative). In a second cocktail (ii), five different molecule species (which differed concerning both side chains of the two dipeptide mimetics) from each of the two mimetic classes, i.e. 10 molecule species altogether, were combined in a cocktail.

| Molecule | binding seen in experimentally determined electron density (thrombin) | binding mode seen in electron density [1] |
| --- | --- | --- |
| O=S(=O)(F)Cc1ccccc1 [PMSF, phenylmethylsulfonyl fluoride] | covalent bond of the PMSF at Ser195 |  |
| diprotin A |  | rather acts as a suicide substrate than as an inhibitor |

Reference: patent US20070110901A1, “Method for identifying weakly binding molecule fragments having ligand properties, whereby the molecule fragments are applied in the form of microdrops of a corresponding solution to the crystal” (Proteros Biostructures GMBH, priority 2003, published 2007)
